Values quoted from earlier work, collected in paper PMC7687576 (In Vitro Cellular & Developmental Biology. Animal, 2020).

How the values were obtained:
[1] = tested on: CYP3A4; details: EpiIntestinal tissues; ref Cui et al. [2020]
[2] = tested on: CYP3A4; details: Caco-2 cultures; ref Cui et al. [2020]
[3] = tested on: EpiIntestinal tissues; details: IL-6 5–20 ng/mL for 72 h; ref Simon et al. [2019]

Compound | amount of 1-hydroxymidazolam (CYP3A4-selective metabolite) detected [1] | amount of 1-hydroxymidazolam metabolite detected [2] | decrease in CYP450 activity level [3] | reduction of CYP450 mRNA expression (CYP2C19, CYP2C9, CYP3A4) [3]
Cc1ncc2n1-c1ccc(Cl)cc1C(c1ccccc1F)=NC2 [Midazolam] | substantial amount | negligible amount |  | 
IL-6: pro-inflammatory cytokine IL-6 |  |  | 20–75% | 40–50%
